These results are taken from article PMC9652379, “Safety evaluations of a synthetic antimicrobial peptide administered intravenously in rats and dogs” (Scientific Reports, 2022).

Positions of bridges follow the written chain, without caps; N, C: chain ends. Non-standard residues stand in square brackets, D forms with d. Residues, ends and D or L forms follow the SMILES beside them. Chains are numbered I, II in the order given. βAla = NCCC(=O)O

Data set [1] has as its system Sprague Dawley rats. In words: Four-week toxicity study in rats: clinical biochemistry and urinalysis. The format is in vivo, rat. Particulars: mean ± SD. As to the method:
The purpose of this study was to evaluate the toxic effects of SET-M33 when administered intravenously to Sprague Dawley rats for 4 weeks. Recovery was evaluated during a 14-day drug-free period. The peptide was administered once a day at three dose levels at 5, 9 and 15 mg/kg/day, and the control group was treated with the vehicle (ten males and ten females per group which were sacrificed after 4 weeks for clinical and necroscopy analyses; five males and five females for the control and 15 mg/kg/day groups which were sacrificed after the 2 weeks recovery period). The higher dose was selected on the basis of the DRF study (above) in which evident toxicity was recorded at the dose of 20 mg/kg. The efficacy dose in mouse is 5 mg/kg[24]. The lowest dose of this test is approximately twice the equivalent efficacy dose in rat (using body surface area) and the intermediate dose is approximately the geometric mean of the other two.
Blood samples were collected into lithium heparin tubes. The following parameters were determined using a Cobas 6000 Analyzer (Roche): glucose (Gluc), urea (Urea), creatinine (Creat), bilirubin, total (Bili), cholesterol, total (Chol), triglycerides (Trig), aspartate aminotransferase (AST), alanine aminotransferase (ALT), alkaline phosphatase (ALP), creatine kinase (CK), gamma-glutamyl-transferase (gGT), calcium (Ca), inorganic phosphorus (Phos), sodium (Na), potassium (K), chloride (Cl), albumin (Alb), globulin (calculated from total protein and Alb%) (Glob), total protein (Total Prot), album/globulin ratio (A/G ratio).
Urine was collected overnight into specimen vials (animals were placed in metabolism cages at the end of the working day preceding the day of urine collection). The following parameters were determined using a Cobas u 411 semi-automated test strip analyser (Roche): specific gravity (SG1), protein (Prot), ketones (Keto), volume (Vol), creatinine (U-Creat), bilirubin (Bili), colour (Col), glucose (U-Gluc), erythrocytes (U-RBC), appearance (App), nitrite (Nite), pH, leukocytes (U-WBC).

Data set [2] concerns Sprague Dawley rats. The following applies: rat, in vivo, iv, 15 mg/kg/day. As to the method:
Necroscopy and histopathological examinations were performed at the end of treatment and at the end of the recovery period. Macroscopic changes were recorded in the kidneys (pale coloration and a reddened medullary area in almost all males and females from groups on 9 and 15 mg/kg/day) and bladder (distended in a few males of all treated groups). These findings were also recorded at the end of the recovery period affecting all animals dose at 15 mg/kg/day (pale coloration of the kidneys) or one male (distended urinary bladder). […] At the end of the recovery period the mean weight of the spleen (both sexes) and the mean weight of the kidneys and ovaries (females) from animals treated at 15 mg/kg/day were still higher with respect to control group. […] For 15 mg/kg/day group, the changes observed in the kidneys, bone marrow, uterine cervix and vagina were not reversible (see Supplementary Material for images and number of animals affected by these irreversible abnormalities), while the rest of the findings were fully (femorotibial growth plate and duodenum) or partially recovered (heart, ovaries and mammary glands) after 2 weeks of recovery period.
All animals underwent necropsy. Descriptions of all macroscopic abnormalities were recorded. […]

In the case of `CC[C@H](C)[C@H](NC(=O)[C@H](CCCCN)NC(=O)[C@@H](N)CCCCN)C(=O)N[C@@H](CCCNC(=N)N)C(=O)N[C@H](C(=O)N[C@@H](CCCNC(=N)N)C(=O)N[C@@H](CC(C)C)C(=O)N[C@@H](CO)C(=O)N[C@@H](C)C(=O)NCCCC[C@H](NC(=O)[C@H](C)NC(=O)[C@H](CO)NC(=O)[C@H](CC(C)C)NC(=O)[C@H](CCCNC(=N)N)NC(=O)[C@@H](NC(=O)[C@H](CCCNC(=N)N)NC(=O)[C@@H](NC(=O)[C@H](CCCCN)NC(=O)[C@@H](N)CCCCN)[C@@H](C)CC)C(C)C)C(=O)NCCCC[C@H](NC(=O)[C@H](CCCCNC(=O)[C@H](C)NC(=O)[C@H](CO)NC(=O)[C@H](CC(C)C)NC(=O)[C@H](CCCNC(=N)N)NC(=O)[C@@H](NC(=O)[C@H](CCCNC(=N)N)NC(=O)[C@@H](NC(=O)[C@H](CCCCN)NC(=O)[C@@H](N)CCCCN)[C@@H](C)CC)C(C)C)NC(=O)[C@H](C)NC(=O)[C@H](CO)NC(=O)[C@H](CC(C)C)NC(=O)[C@H](CCCNC(=N)N)NC(=O)[C@@H](NC(=O)[C@H](CCCNC(=N)N)NC(=O)[C@@H](NC(=O)[C@H](CCCCN)NC(=O)[C@@H](N)CCCCN)[C@@H](C)CC)C(C)C)C(=O)NCCC(=O)O)C(C)C` [SET-M33] (I: H-KKIRVRLSAKK[βAla]-OH / II: H-KKIRVRLSAK / III: H-KKIRVRLSA / IV: H-KKIRVRLSA; amide I:10-IV:C, I:11-II:C, II:10-III:C (inferred); N-terminus and C-terminus assumed), the “Phos, inorganic phosphorus” value with Sprague Dawley rats [1] (female rats, 9 mg/kg/day iv, week 4 of treatment) was determined as 1.49 ± 0.415 mmol/L; in the data set with Sprague Dawley rats [1] (female rats, 15 mg/kg/day iv 4 weeks, week 2 of recovery), 2.04 ± 0.616 mmol/L; in the data set with Sprague Dawley rats [1] (male rats, 5 mg/kg/day iv, week 4 of treatment), 1.97 ± 0.309 mmol/L; in the data set on Sprague Dawley rats [1] (male rats, 9 mg/kg/day iv, week 4 of treatment) it was 2.26 ± 0.393 mmol/L; with Sprague Dawley rats [1] (male rats, 15 mg/kg/day iv 4 weeks, week 2 of recovery), 2.83 ± 1.37 mmol/L. In addition, the “cervical and vaginal epithelial atrophy, incidence” value in the data set with Sprague Dawley rats [2] is recorded as 1 out of 5.
